Consider 57 compounds from patent US10940139B2, “Compounds that interact with the Ras superfamily for the treatment of cancers, inflammatory diseases, rasopathies, and fibrotic disease” (Shy Therapeutics LLC, priority 2017, dated 2021).

By inhibition is commonly meant how much of the control response was suppressed.

In experiment [1] the test system is TNFα production in RAW 264.7 macrophage cell line. In words: Mouse TNF alpha quantification assay (LPS-stimulated macrophages, ELISA). The format is cell-based. Particulars: RAW264.7, RAW 264.7 murine leukemia virus transformed macrophage cell lines, LPS stimulation, read-out: TNF-α % Inhibition at 30 μM. For orientation: In an ELISA, binding on a coated surface is turned into a signal by an enzyme label.

In experiment [2] the test system is IL6 production in RAW 264.7 macrophage cell line. In words: Mouse IL6 quantification assay (LPS-stimulated macrophages, ELISA). The format is cell-based. Particulars: RAW264.7, RAW 264.7 murine leukemia virus transformed macrophage cell lines, LPS stimulation, read-out: IL-6 % Inhibition at 30 μM.

Take `COc1cnc(CNC(=O)c2csc3nc(-c4ccccn4)nc(N)c23)[nH]c1=O` [drawing 2344]: the inhibition at 30 µM in experiment [1] and in experiment [2] was 1 to 25% each time.
In the case of `Oc1nc(-c2ccccn2)nc2c(C3CCC3)csc12` [drawing 2316], the inhibition at 30 µM in experiment [1] and in experiment [2] was 76 to 100% throughout.
Turning to `Cc1ccc(OC2CCCC2)c(-c2csc3c(O)nc(-c4ccccn4)nc23)c1` [drawing 2237], the inhibition at 30 µM in experiment [1] lay within 51 to 75%; in experiment [2], 76 to 100%.
For `COC(=O)c1csc2nc(-c3ccccn3)nc(N)c12` [drawing 2287], in that order: 0% and 51 to 75%.
For `COc1ccnc(-c2nc(O)c3c(C#N)csc3n2)c1` [drawing 2203], in that order: 0% and 1 to 25%.
Regarding `COc1c(O)nc(-c2ccccn2)nc1Oc1cccc(C(F)(F)F)c1` [drawing 2384], the inhibition at 30 µM in experiment [1] lay in the range of 26 to 50%; in experiment [2], 1 to 25%.
For the compound `COc1cn(-c2ccccc2)nc1C(=O)Nc1nnc(-c2ccccn2)[nH]1` [drawing 2000], the results for the inhibition at 30 µM in experiment [1] and in experiment [2] were 0% and 26 to 50%, respectively.
For `Oc1nc(-c2ccccn2)nc2scc(Br)c12` [drawing 2128], in that order: 76 to 100% and 76 to 100%.
In the case of `COCCN(C)c1nc(-c2nccn2C)nc2sc(-c3ccccc3)c(-c3ccccc3)c12` [drawing 2393], the inhibition at 30 µM in experiment [1] and in experiment [2] was 76 to 100% each time.
As to `Oc1nc(-c2ccccn2)nc2c(-c3ccccc3OC3CCCCC3)csc12` [drawing 2258], the results for the inhibition at 30 µM in experiment [1] and in experiment [2] were 26 to 50% and 76 to 100%, respectively.
For `Cn1ccnc1-c1nc(O)c2scc(-c3cccc(C(F)(F)F)c3)c2n1` [drawing 2425], in that order: 51 to 75% and 76 to 100%.
The like results for `CNC(=O)CN1CCN(c2nc(-c3ccccn3)nc3scc(-c4ccccc4)c23)CC1` [drawing 2144] were, in that order, 1 to 25% and 1 to 25%.
The like results for `Oc1nc(-c2ccccn2)nc2c(C3CCCC3)csc12` [drawing 2337] were, in that order, 26 to 50% and 51 to 75%.
`COCCNc1nc(-c2ccccn2)nc2sc(-c3ccccc3)c(-c3ccccn3)c12` [drawing 2447]: the inhibition at 30 µM in experiment [1] and in experiment [2] was 0% each time.
For `CC(C)c1nn(C)cc1-c1csc2c(O)nc(-c3ccccn3)nc12` [drawing 2322], the inhibition at 30 µM in experiment [1] is 1 to 25%; in experiment [2] it was 76 to 100%.
For `Oc1ccc(C2(c3cccc(Cl)c3)CCCC2)cc1` [drawing 2055], in that order: 76 to 100% and 76 to 100%.
The like results for `O=S1(=O)CCN(Cc2cccc(-c3csc4c(O)nc(-c5ccccn5)nc34)c2)CC1` [drawing 2256] were, in that order, 1 to 25% and 76 to 100%.
The like results for `Oc1nc(-c2ccccn2)nc2c(-c3ccc(OC4CCCCC4)cc3)csc12` [drawing 2279] were, in that order, 76 to 100% and 76 to 100%.
Take `COc1cccc(COCC(=O)Nc2nnc(-c3ccccn3)[nH]2)c1` [drawing 1985]: the inhibition at 30 µM in experiment [1] lay within 1 to 25%; in experiment [2], 26 to 50%.
For `O=C(c1csc2c(O)nc(-c3ccccn3)nc12)N1CCNC(c2ccccc2Cl)C1` (stereo not drawn) [drawing 2216], in that order: 0% and 51 to 75%.
For `Oc1nc(-c2ccccn2)nc2sc3c(c12)CCNC3` [drawing 2244], in that order: 26 to 50% and 26 to 50%.
The like results for `CCCOc1ccc2ccccc2c1CN(C)S(=O)(=O)N1CC(C)OC(C)C1` (stereo not drawn) [drawing 2061] were, in that order, 51 to 75% and 1 to 25%.
Regarding `Cn1ccnc1-c1nc(NCCOC2CC2)c2c(-c3ccccc3)c(-c3ccccc3)sc2n1` [drawing 2403], the inhibition at 30 µM in experiment [1] and in experiment [2] was 76 to 100% in each case.
With `CS(=O)(=O)Cc1ccc(C(=O)Nc2nc(-c3ccccn3)cs2)cc1` [drawing 2013], the inhibition at 30 µM in experiment [1] is 1 to 25%; in experiment [2], 0%.
The like results for `O=C(c1csc2c(O)nc(-c3ccccn3)nc12)N1CCNC(Cc2ccccc2)C1` (stereo not drawn) [drawing 2202] were, in that order, 1 to 25% and 76 to 100%.
The like results for `Cc1sc2nc(N)nc(O)c2c1C` [drawing 2165] were, in that order, 1 to 25% and 1 to 25%.
The like results for `Cc1cnc(-c2ccccn2)nc1NC(=O)C(C)c1ccc(C#N)cc1` (stereo not drawn) [drawing 2209] were, in that order, 1 to 25% and 1 to 25%.
Regarding `Cc1nc2nc(C(F)(F)F)nn2c(C)c1CC(=O)Nc1nnc(-c2ccccn2)[nH]1` [drawing 1984], the values for the inhibition at 30 µM in experiment [1] and in experiment [2] were 1 to 25% and 0%, respectively.
For `COC(=O)c1nc(-c2ccccn2)nc(O)c1O` [drawing 2374], in that order: 0% and 0%.
With `Oc1nc(-c2ccccn2)nc2c(C3CCCCC3)csc12` [drawing 2336], the inhibition at 30 µM in experiment [1] and in experiment [2] was 0% throughout.
Turning to `COC(=O)c1c(C)sc2c(N)nc(-c3ccccn3)nc12` [drawing 2335], the inhibition at 30 µM in experiment [1] lay within 1 to 25%; in experiment [2] it was 76 to 100%.
For `COC(=O)c1cccc(CN2CCC(CSc3ccccc3)C2)c1C#N` (stereo not drawn) [drawing 2046], in that order: 0% and 26 to 50%.
The like results for `CC(OCc1ccccc1)C(=O)Nc1nnc(-c2ccccn2)[nH]1` (stereo not drawn) [drawing 1971] were, in that order, 0% and 1 to 25%.
The like results for `OCCn1ncc2c1CCCC2Nc1nc(-c2ccccn2)nc2scc(-c3ccccc3)c12` (stereo not drawn) were, in that order, 26 to 50% and 26 to 50%.
In the case of `Cc1cccc(C)c1OCCOC(=O)c1ccccc1SCCOc1c(C)cccc1C` [drawing 2069], the inhibition at 30 µM is 0% in experiment [1] and 1 to 25% in experiment [2].
Regarding `Nc1nc(O)c2scc(-c3ccccc3Cl)c2n1` [drawing 2119], the inhibition at 30 µM in experiment [1] is 0%; in experiment [2] it was 26 to 50%.
For `COCc1ccc(-c2csc3c(O)nc(-c4ccccn4)nc23)cc1F` [drawing 2239], in that order: 51 to 75% and 76 to 100%.
The like results for `O=c1nc(-c2ccccn2)[nH]c2ccsc12` [drawing 2027] were, in that order, 0% and 1 to 25%.
For `Cc1cc2c(=O)nc(-c3cc(OCC(F)F)ccn3)[nH]c2s1` [drawing 2031], the inhibition at 30 µM in experiment [1] and in experiment [2] was 1 to 25% throughout.
`COCC(C)Nc1nc(-c2ccccn2)nc(C(=O)NCCCc2c[nH]cn2)c1Oc1ccccc1` (stereo not drawn) [drawing 2377]: the inhibition at 30 µM in experiment [1] is 0%; in experiment [2], 1 to 25%.
The like results for `O=C(c1csc2c(O)nc(-c3ccccn3)nc12)N1CCC(c2cccnc2)CC1` [drawing 2109] were, in that order, 1 to 25% and 76 to 100%.
The like results for `CCN(CC)CCOc1nc(-c2nccn2C)nc2sc(-c3ccccc3)c(-c3ccccc3)c12` [drawing 2400] were, in that order, 76 to 100% and 76 to 100%.
For `O=C(Nc1nnc(-c2ccccn2)[nH]1)c1ccc(NC(=O)c2ccccn2)cc1` [drawing 1980], in that order: 1 to 25% and 0%.
With `O=C(Cc1cccc(F)c1)Nc1nc(-c2ccccn2)cs1` [drawing 2018], the inhibition at 30 µM in experiment [1] and in experiment [2] was 1 to 25% each time.
With `N#Cc1ccc(N2CCN(C(=O)c3csc4c(O)nc(-c5ccccn5)nc34)CC2)cc1` [drawing 2182], the figures for the inhibition at 30 µM in experiment [1] and in experiment [2] were 0% and 26 to 50%, respectively.
For `Cc1cccc(C(=O)Nc2nnc(-c3ccccn3)[nH]2)n1` [drawing 1976], in that order: 0% and 1 to 25%.
For `N#Cc1ccc(COCC(=O)Nc2nc(-c3ccccn3)nc3sccc23)cc1` [drawing 2211], in that order: 1 to 25% and 51 to 75%.
The like results for `Oc1nc(-c2ccccn2)nc2c(CC3CCNC3)csc12` (stereo not drawn) [drawing 2353] were, in that order, 1 to 25% and 51 to 75%.
Consider `CN(C)Cc1ccc(-c2csc3c(O)nc(-c4ccccn4)nc23)cc1F` [drawing 2238], for which the inhibition at 30 µM is 51 to 75% in experiment [1] and 76 to 100% in experiment [2].
As to `Oc1nc(-c2ccccn2)nc2c1ncn2-c1ccccn1` [drawing 2124], the inhibition at 30 µM in experiment [1] was 0%; in experiment [2], 26 to 50%.
The like results for `Cc1cnc(-c2ccccn2)nc1NC(=O)C1CCCc2cc(C#N)ccc21` (stereo not drawn) [drawing 2220] were, in that order, 51 to 75% and 76 to 100%.
The like results for `N#Cc1ccc(COCC(=O)Nc2ccnc(-c3ccccn3)n2)cc1` [drawing 2208] were, in that order, 1 to 25% and 1 to 25%.
For `O=C(O)c1cc2nc(-c3ccccn3)nc(O)c2s1` [drawing 2243], in that order: 1 to 25% and 1 to 25%.
As for `N#Cc1ccccc1OCC(=O)Nc1nnc(-c2ccccn2)[nH]1` [drawing 1954], the inhibition at 30 µM in experiment [1] was 0%; in experiment [2], 1 to 25%.
In the case of `O=C(Nc1nc(-c2ccccn2)cs1)c1cccnc1` [drawing 2017], the inhibition at 30 µM in experiment [1] and in experiment [2] was 1 to 25% throughout.
Regarding `C[C@H](NS(=O)(=O)c1ccccc1F)C(=O)Nc1nnc(-c2ccccn2)[nH]1` [drawing 1947], the figures for the inhibition at 30 µM in experiment [1] and in experiment [2] were 1 to 25% and 51 to 75%, respectively.
For `O=C(Nc1nnc(-c2ccccn2)[nH]1)c1ccn(-c2ccccc2)n1` [drawing 1935], in that order: 1 to 25% and 1 to 25%.
